Source: paper PMC8841740, “Fluorescent Ligand-Based Discovery of Small-Molecule Sulfonamide Agonists for GPR120” (Frontiers in Chemistry, 2022)
One block for each molecule: values may come before it.

Key:
[1] = Weight changes of db/db mice during four weeks of administration; type: in vivo
Procedure: (§1) All animal studies were approved by the Ethics Committee and IACUC of Cheeloo College of Medicine, Shandong University, and were conducted in compliance with European Guidelines for the Care and Use of Laboratory Animals. After adaptive feeding for 10–15 days, the db/db mice were divided into positive control group (30 mg/kg), low content compound group (10 mg/kg), high content compound group (30 mg/kg), and negative control group (the same volume dosing solvent). These mice were administrated by gavage once a day (administration volume, 20 ml/kg) for four consecutive weeks. During the administration period, the fasting blood glucose (without food and water for 6 h) was measured twice a week by using a blood glucose meter. The blood glucose level was measured for four consecutive weeks. The data was processed with Graphpad 8.2 software ([Cox et al., 2017]; [Zhang et al., 2017]).

GPR120 [2] = experiment: Bias of agonists (Gq versus β-arrestin2 pathway); type: cell-based; conditions: reference GSK137647A pathways P1 Gq, P2 β-arrestin2
Text: The bias was quantified by Eq. 1, in which β is the bias factor, Emax is the maximum effect produced by the agonist, and Pl and P2 represents the Gq and β-arrestin2 signal pathway, respectively.
Formula 1: β=log((Emax,P1/EC50,P1EC50,P2/Emax,P2)lig×(Emax,P2/EC50,P2EC50,P1/Emax,P1)ref) (1)

GPR120 [3] = target: T1, GPR120 (Homo sapiens, UniProt Q5NUL3); experiment: GPR120 Ca2+ flow assay in HEK293 cells stably transfecting the GPR120-Rluc gene; type: cell-based; design: expressed in transfected cells
T1 sequence (Q5NUL3 1-361): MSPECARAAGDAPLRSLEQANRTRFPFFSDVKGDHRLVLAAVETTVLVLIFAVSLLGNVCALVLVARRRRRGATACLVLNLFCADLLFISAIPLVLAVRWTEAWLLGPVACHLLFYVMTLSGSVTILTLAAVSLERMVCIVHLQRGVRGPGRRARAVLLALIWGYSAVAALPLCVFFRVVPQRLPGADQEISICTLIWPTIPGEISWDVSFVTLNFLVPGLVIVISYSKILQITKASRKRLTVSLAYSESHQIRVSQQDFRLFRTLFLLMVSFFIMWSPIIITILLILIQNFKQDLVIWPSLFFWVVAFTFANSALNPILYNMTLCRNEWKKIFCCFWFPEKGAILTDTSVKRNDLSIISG
Procedure: Ca^2+ flow activity was determined in HEK293 cells stably transfecting the GPR120-Rluc gene. After incubating the cells for 24 h, the medium was removed from the plate, and the cells were washed with HBSS buffer (without Ca^2+ and Mg^2+). Subsequently, a 2-μM Fluo-4 AM working solution in HBSS buffer (without Ca^2+ and Mg^2+) was added to the plate (40 μl per well).

db/db mice [4] = experiment: Fasting blood glucose in db/db mice after 4 weeks of administration; type: in vivo; conditions: gavage once a day
Procedure: as §1

GPR120 [5] = target: T1, GPR120; experiment: Fluorescence imaging in HEK293 cells (stably transfected with GPR120) and PC-3 cells; type: cell-based; design: expressed in transfected cells
Procedure: HEK293 and PC-3 cells were seeded in fluorescent confocal dishes (5 × 10^3 per well). After the cells were iron-walled, the medium was removed from the dishes, the cells were washed once with a serum-free medium, and the probe was added. After incubating the cells for 10 min, the confocal dishes were observed by an inverted fluorescence microscope.

GPR40 = target: T2, GPR40 (Homo sapiens, UniProt O14842); experiment: GPR40 Ca2+ flow assay in CHO cells with transient GPR40 gene; type: cell-based
T2 construct: expressed in transfected cells; host or cells: CHO (transient)
Procedure: Ca^2+ flow activity was determined in HEK293 cells stably transfecting the GPR120-Rluc gene. After incubating the cells for 24 h, the medium was removed from the plate, and the cells were washed with HBSS buffer (without Ca^2+ and Mg^2+). Subsequently, a 2-μM Fluo-4 AM working solution in HBSS buffer (without Ca^2+ and Mg^2+) was added to the plate (40 μl per well). After incubating the cells for 20 min at 37°C, compound solution at different concentrations in HBSS buffer (per well 160 μl) was added. Followed by a 40-min incubation, the solution was removed from the plate, HEPES buffer (200 μl per well) was added, and the fluorescence intensity was detected using the microplate reader (Ex: 488 nm; Em: 520 nm) ([Watterson et al., 2017]).
Ca^2+ flow activity was determined in CHO cells with transient GPR40 gene by the same method as well, in which the GPR40 agonist TAK875 was used as a positive control.

GPR120 [6] = target: T1, GPR120; experiment: Preliminary screening of agonists by BRET competition with probe N1; type: binding; design: expressed in transfected cells; conditions: 10 μM compound, probe N1 400 nM
Procedure: HEK293 cells stably transfected with the GPR120-Rluc gene were seeded in a black 96-well plate (100 μl, 2 × 10^4 cells per well). After a 24-h incubation, the medium was removed, probe N1 (400 nM, 50 μl per well) was added, and 10 μM of the compound was added after a 30-min incubation as well. Followed by a 40-min incubation, coelenterazine (final concentration: 10 μM, 50 μl per well) was added to the plate. Afterward, the fluorescence intensity was measured at 450 and 550 nm with the microplate reader after another 10-min incubation.

GPR120 [7] = target: T1, GPR120; experiment: BRET activity test (β-arrestin-2 recruitment, GPR120-YFP / β-arrestin-2-Rluc in HEK293 cells); type: cell-based; design: host or cells: HEK293 (transfected with both plasmids)
Procedure: GPR120-YFP and β-arresting-2-Rluc plasmids were transfected into HEK293 cells. After a 24-h incubation, the cells were seeded in a black 96-well plate (100 μl, 20,000 cells per well). Followed by a 24-h incubation, the solution was removed from the plate, and compounds with different concentrations (100 μl per well) and coelenterazine (10 μM, 100 μl per well) were added, followed by the fluorescence intensity was measured at 460 and 520 nm with the microplate reader ([Christiansen et al., 2016]; [Hill et al., 2018]).

db/db mice [8] = experiment: Glucose tolerance test in db/db mice; type: in vivo
Procedure: On the last day of the dosing cycle, the fasting blood glucose of mice was measured (without food and water for 6 h), and glucose solution (100 mg/kg) was injected. The blood glucose was measured at […] (5, 10, 30, 60, and 120 min). Finally, the area under the curve was analyzed with SPSS 24 software.

GPR120 [9] = target: T1, GPR120; experiment: BRET kinetic binding experiment of probe N1; design: expressed in transfected cells
Procedure: HEK293 cells stably transfecting the GPR120-Rluc gene were seeded in two entirely black 96-well plates (100 μl, 2 × 10^4 cells per well). After a 24-h incubation, the medium was removed from the non-specific plate, coelenterazine was added to (final concentration: 10 μM, 50 μl per well) the plates, and BRET value was measured after a 5-min incubation. Probe N1 (500 nM, 100 μl per well) was then added, and the BRET value was recorded in a 30-s interval for 6 minutes. Finally, GSK137647A was added (50 μl per well), and BRET value was measured in a 30-s interval for 30 min.

[10] = Optical property of fluorescent probes; type: physicochemical
Procedure: The stocking solution of probes was diluted with acetonitrile to 40 μM, and their ultraviolet absorption spectrum was scanned with an ultraviolet spectrophotometer. Secondly, the excitation and emission spectra of probes at 10, 20, 30, and 40 μM with PBS buffer were measured with a microplate reader. Moreover, the excitation and emission spectrum were recorded in four solvents: MeCN, DMSO, H2O, and EA, respectively.

GPR120 [11] = target: T1, GPR120; experiment: BRET saturation experiment of probe N1; design: expressed in transfected cells; conditions: 15 μM GSK134647A for non-specific binding
Procedure: HEK293 cells stably transfecting the GPR120-Rluc gene were seeded in two black 96-well plates (100 μl, 2 × 10^4 cells per well). After incubating the cells for 24 h, the medium of the non-specific plate was removed, and positive control GSK134647A (15 μM, 50 μl per well) was added into each well. After a 40-min incubation, the medium was removed, and probe N1 was added into two plates (100 μl per well). Followed by incubation for 40 min, coelenterazine was added to the plates (final concentration: 10 μM, 100 μl per well for specific plates; 50 μl per well for non-specific plates). Finally, the fluorescence intensity was measured at 460 and 520 nm with the microplate reader after a 10-min incubation ([Christiansen et al., 2016]).

FFA1 = tested on: FFA1; design: method as in Sparks et al., 2014; conditions: in Figure 3; ref Sparks et al., 2014; cited from earlier work
GPR120 [12] = target: T1, GPR120; experiment: BRET competitive binding experiment with probe N1; design: expressed in transfected cells; conditions: probe N1 400 nM, read-out: pKi (N1) (converted)
Procedure: HEK293 cells stably transfected with the GPR120-Rluc gene were seeded in a black 96-well plate (100 μl, 2 × 10^4 cells per well). After the cells were incubated for 24 h, the medium was removed, and probe N1 (400 nM, 50 μl per well) was added. […] Followed by a 40-min incubation, coelenterazine was added to (final concentration: 10 μM, 50 μl per well) the plates. Thenceforward, the fluorescence intensity was measured at 450 and 550 nm with the microplate reader after a 10-min incubation.

FFA4 = tested on: FFA4; design: method as in Sparks et al., 2014; conditions: in Figure 3; ref Sparks et al., 2014; cited from earlier work
GPR120 [13] = conditions: cited from earlier work
[14] = GPR120, Ca2+ flow, HEK293 GPR120-Rluc cells, read-out: pEC50 Ca2+ assay (converted)
[15] = GPR120, β-arrestin-2 activity test, read-out: pEC50 BRET (converted)

Emax (FFA4 Ca2+) (GPR120 [3]; GSK137647A used as a standard): 1.22
EC50 (GPR120 [3]; Table 3, read-out: FFA4 (Ca2+ pEC50) (converted)): 5.37 nM
melting point: 148 to 149 °C
fluorescence intensity of N1 after co-incubation (competitive cell imaging) (GPR120 [5]; N1 0.5 μM and D5 10 μM, HEK293 cells stably transfected with GPR120): decreased significantly
EC50 (GPR40; CHO cells, GPR40, read-out: FFA1 (Ca2+ pEC50) (converted)): > 50100 nM
inhibition rate in BRET screening compared with GSK137647A (GPR120 [6]): higher than GSK137647A
Emax (FFA4 β-arrestin2) (GPR120 [7]; GSK137647A used as a standard): 1.12
EC50 (GPR120 [7]; Table 3, read-out: FFA4 (β-arrestin2 pEC50) (converted)): 34.7 nM
SMILES: O=S(=O)(Nc1ccc(F)cc1)c1ccc(-c2ccc(OC(F)(F)F)cc2)cc1 [Compound D5, N-(4-Fluorophenyl)-4′-(Trifluoromethoxy)-[1,1′-Biphenyl]-4-Sulfonamide]
weight change ([1]; 10 mg/kg): reached a stable level in the fourth week
weight change ([1]; 30 mg/kg): decreased in the fourth week
bias (bias factor, Gq vs β-arrestin2) (GPR120 [2]): relatively biased towards the Gq pathway
fasting blood glucose-lowering level compared with GSK137647A (db/db mice [4]; 10 mg/kg): the same blood glucose-lowering level
fasting blood glucose-lowering level compared with GSK137647A (db/db mice [4]; 30 mg/kg): a higher blood-glucose-lowering level
reduction of blood glucose AUC0–120 min (db/db mice [8]; 10 mg/kg): 15.3%
reduction of blood glucose AUC0–120 min (db/db mice [8]; 30 mg/kg): 30.3%

time to reach a stable state of dissociation from GPR120 (GPR120 [9]; after adding excess GSK137647A): 30 min
Kd (GPR120 [9]; kinetic binding experiment): 273 nM
time for binding to GPR120 to reach saturation (GPR120 [9]; probe 500 nM): ≤ 6 min
koff (GPR120 [9]; probe 500 nM, dissociation by GSK137647A (10 μM), read-out: off-rate koff (converted)): 0.00113 s⁻¹
kon (GPR120 [9]; probe 500 nM, read-out: on-rate kon (converted)): 4150 M⁻¹ s⁻¹
EC50 (GPR120 [3]; [14]): 891 nM
melting point: 230 to 231 °C
fluorescence intensity in cell imaging (GPR120 [5]; HEK293 and PC-3 cells): much greater than that of N2 and N3
Ca2+ response to GPR40 compared with TAK875 (GPR40; TAK875 as positive control): much lower than that of TAK875
λabs ([10]; MeCN): 419 nm
Φ (absolute quantum yield) ([10]; PBS): 3.73%
λem ([10]; PBS): 562 nm
λex ([10]; PBS): 444 nm
SS (stokes shift) ([10]; PBS buffer (pH = 7.4)): 118 nm
Kd (GPR120 [11]): 1120 ± 600 nM
EC50 (GPR120 [7]; [15]): 427 nM
SMILES: Cc1cc(C)c(NS(=O)(=O)c2ccc(NCCN3C(=O)c4cccc5c(N(C)C)ccc(c45)C3=O)cc2)c(C)c1 [Compound N1, 4-((2-(6-(Dimethylamino)-1,3-dioxo-1H-benzo[de]isoquinolin-2(3H)-yl)ethyl)amino)-N-mesitylbenzenesulfonamide]

Ki (GPR120 [12]): 110 nM
EC50 (GPR120 [3]; [14]): 44.7 nM
pEC50 (Ca2+ assay) (GPR120 [3]; GPR120, Table 2): 7.35 ± 0.59
EC50 (GPR120 [7]; [15]): 178 nM
SMILES: COc1ccc(S(=O)(=O)Nc2c(C)cc(C)cc2C)cc1 [GSK137647A, reference compound]
FFA1 Human pEC50 (FFA1): < 4.5
FFA4 Human pEC50 (FFA4): 6.3(0.17)
pEC50 (Literature) (GPR120 [13]): 6.30 ± 0.2^16
reduction of blood glucose AUC0–120 min (db/db mice [8]; 30 mg/kg): 19.3%
